From patent publication US10220033B2, “Substituted benzoxazepine for cancer therapy” (University of Cape Town, priority 2014, dated 2019)
Read-outs that look alike come from different tables or passages of the source.

Key:
[1] = test system: WHCO5 oesophageal cancer cell line; assay: MTT assay for cell viability, IC50 determination; type: cell-based, human; settings: Homo sapiens
Description: (§1) Cells were plated in 96-well plates and treated with varying concentrations of a test compound for 48 hours, after which MTT dye, 3-(4,5-dimethylthiazol-2-yl)-2,5-diphenyltetrazolium bromide (Sigma), was added, and crystals solubilised 4 hours later using Solubilisation Reagent (10% SLS in 0.01 M HCl). Absorbencies were measured at 595 nm the following day using a BioTek microplate spectrophotometer (Winooski, Vt., USA) and IC50 curves were generated using GraphPad Prism.

[2] = test system: HeLa cervical cancer cell line; assay: MTT assay for cell viability, IC50 determination; type: cell-based; settings: for IC50: Homo sapiens, HeLa
Description: as §1

[3] = test system: KYSE150 oesophageal cancer cell line; assay: MTT assay for cell viability, IC50 determination; type: cell-based; settings: Homo sapiens, KYSE-150
Description: as §1

[4] = test system: WI38 non-cancer cell line; assay: MTT assay for cell viability, IC50 determination; type: cell-based; settings: Homo sapiens, WI-38
Description: as §1

[5] = test system: MCF7 breast cancer cell line; assay: MTT assay for cell viability, IC50 determination; type: cell-based; settings: Homo sapiens
Description: as §1

[6] = test system: SVWI38 transformed cell line; assay: MTT assay for cell viability, IC50 determination; type: cell-based
Description: as §1

[7] = test system: MDA-MB-231 breast cancer cell line; assay: MTT assay for cell viability, IC50 determination; type: cell-based; settings: Homo sapiens
Description: as §1

[8] = test system: DMB normal skin fibroblasts (non-cancer); assay: MTT assay for cell viability, IC50 determination; type: cell-based; settings: Skin fibroblast
Description: as §1

[9] = MTT assay for cell viability, IC50 determination; type: cell-based; settings: Homo sapiens, MCF-12A, MCF12A
Description: as §1

[10] = test system: CaSki cervical cancer cell line; assay: MTT assay for cell viability, IC50 determination; type: cell-based
Description: as §1

cancer cell lines = assay: MTT cell viability, summary statements over panels of cancer cell lines; type: cell-based; settings: CaSki, HeLa, WHCO5, KYSE150, MCF12A, MCF7, MDA-MB-231, SVW138 (Table 4); read-out: IC50 values
Description: as §1

[11] = test system: KYSE180 oesophageal cancer cell line; assay: MTT assay for cell viability, IC50 determination; type: cell-based; settings: Homo sapiens, KYSE-180, 48 hours
Description: as §1

[12] = test system: EPC2 (EPC2-hTERT normal immortalised oesophageal epithelial cells); assay: MTT assay for cell viability, IC50 determination; type: cell-based; settings: Homo sapiens, compound in salt form
Description: as §1

[13] = test system: NFAT transcriptional activity in NFAT-transfected HeLa cells; assay: NFAT luciferase reporter assay; type: cell-based; settings: stimulated with TPA and ionomycin (FIGS. 16-20)
Description: To assay for NFAT luciferase activity, 30 000 HeLa cells were plated per well in 24-well plates, and transfected with 50 ng GFP-NFAT plasmid (Addgene plasmid #24219, gift of Jerry Crabtree (Beals C R, Clipstone N A, Ho S N, Crabtree G R. Nuclear localization of NF-ATc by a calcineurin-dependent, cyclosporin-sensitive intramolecular interaction. Genes Dev 1997 Apr. 1; 11(7):824-34)), 50 ng NFAT-luciferase (Addgene plasmid #10959, gift of Toren Finkel (Ichida M, Finkel T. Ras regulates NFAT3 activity in cardiac myocytes. J Biol Chem 2001 Feb. 2; 276(5):3524-30)), and 5 ng pRL-TK, using 0.4 μl Genecellin™ Transfection Reagent (Celtic Molecular Diagnostics, South Africa). The NFAT-luciferase reporter plasmid contains three tandem repeats of a 30 bp fragment of the IL-2 promoter known to bind NFAT. The following day cells were treated with 10 or 15 μM Compound A and after an overnight incubation, stimulated with 100 nM TPA (Sigma) and 1.3 μM Ionomycin (Santa Cruz Biotechnology, Santa Cruz, Calif., USA) for 5 hours, following which luciferase activity was measured.
An assay for nuclear NFAT following ionomycin and Compound A treatment was carried out, using an NFAT-luciferase reporter that is activated by nuclear NFAT. The phorbol ester TPA was used to co-stimulate NFAT, as it has been shown previously that TPA and ionomycin elicit synergistic stimulation of NFAT luciferase activity (Northrop J P, Ullman K S, Crabtree G R. Characterization of the nuclear and cytoplasmic components of the lymphoid-specific nuclear factor of activated T cells (NF-AT) complex. J Biol Chem 1993 Feb. 5; 268(4):2917-23).

[14] = 48 h, 48 hours, MTT, read-out: IC50
[15] = Homo sapiens, Ca-Ski, 48 h, MTT, read-out: IC50
[16] = compound in salt form, read-out: IC50
[17] = Homo sapiens, Ca-Ski, compound in salt form, read-out: IC50

IC50 ([1]; 48 h, MTT) [µM] | IC50 [2, 14] [µM] | IC50 [10, 15] [µM] | IC50 [11] [µM] | Compound | other results
17.9 | 8.62 | 8.69 | – | Clc1ccccc1COc1nc2cc3c(cc2cc1CNCc1cn2c(n1)SCC2)CCC3 [Compound IV, ({2-[(2-chlorophenyl)methoxy]-6H,7H,8H-cyclopenta[g]quinolin-3-yl}methyl)({2H,3H-imidazo[2,1-b][1,3]thiazol-6-ylmethyl})amine] | IC50 ([3]; KYSE150, 48 hours, MTT): 11.2 µM; IC50 ([4]; WI38 non-cancer, 48 hours, MTT): 25.1 µM; IC50 ([5]; 48 hours, MTT): 14 µM; IC50 ([6]; SVWI38 transformed, 48 hours, MTT): 12.9 µM; IC50 ([7]; 48 hours, MTT): 8.01 µM; IC50 ([8]; DMB non-cancer, 48 hours, MTT): 8.27 µM; IC50 ([9]; 48 hours, MTT): 11.4 µM; IC50 (cancer cell lines): 8 to 18 µM
– | – | – | – | c1ccc2nccnc2c1 [quinoxaline, reference compound] | cell-killing effect ([2]; HeLa cells, concentration range of up to 6.5 mM (FIG. 3A)): No cell-killing effect was observed
12.2 | 8.38 | 12.2 | 14.8 | CCCn1c(N)c(-c2nc3ccccc3[nH]2)c2nc3ccccc3nc21 [Compound D] | –
6.14 | 6.38 | 6.17 | 5.51 | CC(C)CCn1c(N)c(-c2nc3ccccc3[nH]2)c2nc3ccccc3nc21 [Compound G] | –
5.7 | 6.36 | 5.59 | 6.03 | CCN(CC)CCCn1c(N)c(-c2nc3ccccc3[nH]2)c2nc3ccccc3nc21 [Compound B] | –
– | – | 26.9 | – | Cc1csc2nc(CNCc3cc4cc5c(cc4n(CCN4CCCCC4)c3=O)CCC5)cn12 [Compound XI, 3-[[(3-methylimidazo[2,1-b]thiazol-6-yl)methylamino]methyl]-1-[2-(1-piperidyl)ethyl]-7,8-dihydro-6H-cyclopenta[g]quinolin-2-one] | IC50 ([1]; compound in salt form): 17 µM; IC50 [2, 16]: 33.1 µM; IC50 ([3]; Kyse150, compound in salt form): 40.1 µM; IC50 ([4]; WI38, compound in salt form): 35 µM; IC50 ([5]; compound in salt form): 95 µM; IC50 ([6]; SVWI38, compound in salt form): 41.1 µM; IC50 ([7]; compound in salt form): 32.7 µM; IC50 ([8]; DMB, compound in salt form): 31.2 µM; IC50 ([9]; compound in salt form): 61.8 µM; IC50 [10, 17]: 26.9 µM
– | – | 27.4 | – | CC(C)Cc1ccc(CNCc2cccnc2N2CCCN(C)CC2)s1 [Compound XII, 1-(5-isobutyl-2-thienyl)-N-[[2-(4-methyl-1,4-diazepan-1-yl)-3-pyridyl]methyl]methanamine] | IC50 ([1]; compound in salt form): 20.3 µM; IC50 [2, 16]: 23.1 µM; IC50 ([3]; Kyse150, compound in salt form): 25.5 µM; IC50 [12]: 41.6 µM; IC50 ([4]; WI38, compound in salt form): 33.8 µM; IC50 ([5]; compound in salt form): 44.9 µM; IC50 ([6]; SVWI38, compound in salt form): 31.3 µM; IC50 ([7]; compound in salt form): 30 µM; IC50 ([8]; DMB, compound in salt form): 57 µM; IC50 ([9]; compound in salt form): 34.1 µM; IC50 [10, 17]: 27.4 µM
6.79 | 4.16 | 6.62 | 7.23 | CCn1c(N)c(-c2nc3ccccc3[nH]2)c2nc3ccccc3nc21 [Compound K] | –
11.8 | 22.2 | 38.4 | 33.1 | CCCn1c(N)c(-c2nc3ccccc3n2C)c2nc3ccccc3nc21 [Compound J] | –
– | – | – | – | Ivermectin [reference compound] | NFAT activation (NFAT-luciferase reporter) [13]: significantly diminished
– | – | 22.2 | – | Cc1ccc(OC[C@@H](O)CN2CCN(CCO)CC2)cc1C [VII, (2S)-1-(3,4-dimethylphenoxy)-3-[4-(2-hydroxyethyl)piperazin-1-yl]propan-2-ol] | –
– | – | 37.7 | – | OCCCNCc1cc2cc3c(cc2nc1N1CCN(c2cccc(Cl)c2)CC1)OCO3 [XV, 3-[[6-[4-(3-chlorophenyl)piperazin-1-yl]-[1,3]dioxolo[4,5-g]quinolin-7-yl]methylamino]propan-1-ol] | –
– | – | 46.8 | – | CN1CCc2cc(CNC3CCN(c4ccc(C(=O)NC5CCCC5)cc4)CC3)ccc21 [XVI, N-cyclopentyl-4-[4-[(1-methylindolin-5-yl)methylamino]-1-piperidyl]benzamide] | –
– | – | 26.7 | – | Cc1csc2nc(CNCc3cc4cc5c(cc4n(CC4CCCCC4)c3=O)CCC5)cn12 [Compound X, 1-(cyclohexylmethyl)-3-[[(3-methylimidazo[2,1-b]thiazol-6-yl)methylamino]methyl]-7,8-dihydro-6H-cyclopenta[g]quinolin-2-one] | IC50 ([1]; compound in salt form): 20 µM; IC50 [2, 16]: 21.5 µM; IC50 ([3]; Kyse150, compound in salt form): 32.2 µM; IC50 [12]: 9.37 µM; IC50 ([4]; WI38, compound in salt form): 39.4 µM; IC50 ([5]; compound in salt form): 23.7 µM; IC50 ([6]; SVWI38, compound in salt form): 33.5 µM; IC50 ([7]; compound in salt form): 22.1 µM; IC50 ([8]; DMB, compound in salt form): 69.3 µM; IC50 ([9]; compound in salt form): 11.7 µM; IC50 [10, 17]: 26.7 µM
– | – | – | – | c1ccc2[nH]cnc2c1 [Benzimidazole, benzimidazole, reference compound] | IC50 ([2]; HeLa cells (FIG. 3B), read-out: IC50 concentration (cell-killing effect)): 2080 µM
6.59 | 6.77 | 7.55 | 5.35 | CC(C)Cn1c(N)c(-c2nc3ccccc3[nH]2)c2nc3ccccc3nc21 [Compound F] | –
19.6 | 15.4 | – | 22 | Cn1c(-c2c(N)n(CCCN3CCOCC3)c3nc4ccccc4nc23)nc2ccccc21 [Compound I] | IC50 ([10]; 48 hours, MTT): Does not converge.
6.3 | 4.04 | 10 | 1.18 | Nc1c(-c2nc3ccccc3[nH]2)c2nc3ccccc3nc2n1CCCO [Compound H] | –
– | – | 16.4 | – | CCOC(=O)c1cc2c(=O)n3cc(C)ccc3nc2[n+](CCCN2CCOCC2)c1N [V, ethyl 2-imino-8-methyl-1-[3-(4-morpholinyl)propyl]-5-oxo-1,5-dihydro-2H-dipyrido[1,2-a:2′,3′-d]pyrimidine-3-carboxylate] | –
– | – | – | – | COc1cc2ncnc(Nc3cccc(Cl)c3)c2cc1OC [AG 1478, reference compound] | NFAT activation (NFAT-luciferase reporter) [13]: no change
5.94 | 8.29 | 14.3 | 8.79 | CCCCn1c(N)c(-c2nc3ccccc3[nH]2)c2nc3ccccc3nc21 [Compound E] | –
– | – | 19.1 | – | COc1ccc(C)cc1NC(=O)[C@@H](NCc1nc2ccccc2n1C)c1ccccc1 [VI, (2S)-N-(2-methoxy-5-methyl-phenyl)-2-[(1-methylbenzimidazol-2-yl)methylamino]-2-phenyl-acetamide] | –
8.32 | 7.19 | 9.49 | 8.46 | Nc1c(-c2nc3ccccc3[nH]2)c2nc3ccccc3nc2n1CCCn1ccnc1 [Compound C] | –
– | – | 24.4 | – | Cc1ccc2cc(CNCCCN3C[C@@H]4C=C[C@H]3C4)c(N3CCC(O)CC3)nc2c1 (stereo in doubt) [VIII, 1-[3-[[3-[(1S,4R)-5-azabicyclo[2.2.1]hept-2-en-5-yl]propylamino]methyl]-7-methyl-2-quinolyl]piperidin4-ol] | –
– | – | 31.7 | – | Cc1ccc2c(c1)c1c(n2C[C@@H](O)CNC[C@@H]2CCCO2)CCCC1 [XIV, (2S)-1-(6-methyl-1,2,3,4-tetrahydrocarbazol-9-yl)-3-[[(2S)-tetrahydrofuran-2-yl]methylamino]propan-2-ol] | –
